# Data: patent US20180344725A1, “QUINOLONE CHALCONE COMPOUNDS AND USES THEREOF” (priority 2015, published 2018)
# Legend:
# MDA-MB-468 = test: Immunofluorescent staining: centrosomes and chromosome segregation; assay type: cell-based, human; details: 3 μM
# Experimental: (§1) Cells on coverslips placed on the bottom of 35 mm tissue culture plates or 6-well clustered dishes were treated for 12-24 hours with the CTR compounds to be tested. Subsequently, the cells were fixed with 100% methanol for 15 minutes and washed with 1×PBS three times. Cells were then “blocked” with 3% BSA or 1% (v/v) FBS plus 1×PBST (1×PBS buffer containing 0.1% (v/v) Triton X-100 or 0.2% Tween 20), and incubated overnight at 4° C. with primary antibodies, with gentle agitation. Unbound primary antibodies were washed off with PBST, and a secondary antibody was added for 1 hour in the dark. Secondary antibodies were conjugated to Alexa 488 or 568. DNA was counterstained with DRAQ5 or DAPI. Subsequently, coverslips were washed three times with 1×PBST for 10 minutes each, followed by mounting them onto slides with 90% glycerol in 1×PBS. Each slide was visualized with a Carl Zeiss 510 Meta laser scanning microscope or an Axioscope. Image analysis was done with an LSM image examiner equipped with the microscopes (Carl Zeiss, Toronto, ON, Canada).
# (§2) The cancer-specific increase of mitotic cells in response to CTR-17 was correlated with the accumulation of cells with monopolar centrosomes and abnormal chromosome alignment/segregation (FIG. 11, Table 5). Cells were either sham-treated or treated with 3.0 μM CTR-17 for 12 hours or 24 hours, followed by analyses of cell cycle progression, centrosome abnormalities, and chromosome alignment/segregation. […] The mitotic index was determined by fluorescence microscopic analysis of at least 200 cells for each cell type, and data was expressed as percentage mean±S.E.M. of at least two independent experiments.
# HEK293T = test: as above; assay type: cell-based; details: 3 μM
# Experimental: as §1, §2
# HeLa cells = test: EdU incorporation (DNA replication); assay type: cell-based; details: 3.0 μM for 24 hours; sham control 25.4%
# Experimental: CTR-17 caused neither impediment of DNA replication nor DNA damage. […] The detection of EdU incorporated into DNA was carried out by fluorescence microscopy. […] Etoposide (50.0 μM) was used as a positive control.
# RPMI-8226-BR = test: Antiproliferation, bortezomib-resistant cells; assay type: cell-based; details: RPMI-8226-BR (bortezomib-resistant)
# Experimental: For (anti)proliferation assays, 4,000-5,000 cells/well of the 96-well clustered dish were incubated for 16 hours, as described previously (Hu et al., 2008; Skehan et al., 1990). After 16 hours, culture medium was replaced with fresh medium containing different dilutions of test compounds dissolved in DMSO. Some wells were treated with 100 μl of 10% trichloroacetic acid (TCA) as a negative control and sham (medium with dimethyl sulfoxide; DMSO) treated cells were used as a positive control. After 72 hours post-incubation, medium was removed and cells were fixed with 10% TCA at 4° C. for 1 hour. […] SRB stained macromolecules were determined at a 540 nm wavelength using an automated plate reader (Synergy H4 Hybrid Multi-Mode Microplate Reader, BioTek, Winooski, Vt.). Cell growth (inhibition) was calculated by the following formula: […]
# wherein AT=absorbance of treated cells, CT=absorbance of negative control cells, and ST=absorbance of sham treated cells. IC50 values were calculated from sigmoidal dose-response curves generated by two independent biological replicates, with quadruplicate in each set by using Graph Pad Prism v.5.04 software. […] The combinational index (CI) was calculated as described previously (Chou 2006). […] CI values were determined from four independent experiments.
# NCI-60 cancer cell lines = test: NCI-60 cancer panel SRB screening; assay type: cell-based; details: 10 μM, 48 hours
# Experimental: Ten μM of CTR-20 was used to examine the drug's efficacy against the NCI-60 cancer cell lines including: six leukemia cell lines, nine non-small cell lung cancer cell lines, seven colorectal cancer cell lines, six CNS cancer cell lines, nine melanoma cell lines, seven ovarian cancer cell lines, seven renal cancer cell lines, two prostate cancer cell lines and six breast cancer cell lines. Screening method was carried out by a sulforhodamine B (SRB) colorimetric assay.
# MCF-7 = test: Immunofluorescent staining: centrosomes and chromosome segregation; assay type: cell-based, human; details: 1 μM, 24 hours
# Experimental: as §1
# Asynchronously growing cells were treated with 1 μM CTR-20 for 24 hours, followed by examining cells arrested in mitosis. The percentage of mitotic cells was calculated based on the examination of at least 250-400 cells. […]
SMILES,ACS (abnormal chromosome segregation) (MDA-MB-468; 12 h post-treatment),Monopolar centrosome (MDA-MB-468; 12 h post-treatment),ACS (abnormal chromosome segregation) (MDA-MB-468; 24 h post-treatment),Monopolar centrosome (MDA-MB-468; 24 h post-treatment),ACS (abnormal chromosome segregation) (HEK293T; 12 h post-treatment),Monopolar centrosome (HEK293T; 12 h post-treatment),ACS (abnormal chromosome segregation) (HEK293T; 24 h post-treatment),Monopolar centrosome (HEK293T; 24 h post-treatment),EdU positive cells (HeLa cells) [%],IC50 (RPMI-8226-BR) [nM],cell survival (range over cell lines) (NCI-60 cancer cell lines; nine melanomas),cell survival (range over cell lines) (NCI-60 cancer cell lines; nine non-small cell lung cancer cell lines) [%],cell survival (range over cell lines) (NCI-60 cancer cell lines; seven colorectal cancer cell lines),cell survival (range over cell lines) (NCI-60 cancer cell lines; seven ovarian cancer cell lines),cell survival (range over cell lines) (NCI-60 cancer cell lines; seven renal cancer cell lines),cell survival (range over cell lines) (NCI-60 cancer cell lines; six breast cancer cell lines),cell survival (range over cell lines) (NCI-60 cancer cell lines; six leukemia cell lines),cell survival (range over cell lines) (NCI-60 cancer cell lines; two prostate cancer cell lines),ACA/S (%) (abnormal chromosome alignment and segregation) (MCF-7),Monopolar (%) (MCF-7)
"COc1ccccc1C(=O)/C=C/c1cc2ccccc2[nH]c1=O [CTR-17, (E)-3-(3-(2-Methoxyphenyl)-3-oxoprop-1-enyl)quinolin-2(1H)-one]",44.7 ± 8.9% of total mitotic cells,55.3 ± 8.9% of total mitotic cells,24.0 ± 5.9% of total mitotic cells,76.0 ± 5.9% of total mitotic cells,48.2 ± 10.1% of total mitotic cells,50.5 ± 10.1% of total mitotic cells,0.1 ± 0.0% of total mitotic cells,93.2 ± 3.4% of total mitotic cells,22.0,,,,,,,,,,,
"COc1ccc2[nH]c(=O)c(/C=C/C(=O)c3ccccc3OC)cc2c1 [CTR-20, (E)-6-Methoxy-3-(3-(2-methoxyphenyl)-3-oxoprop-1-enyl) quinolin-2(1H)-one]",,,,,,,,,,280 ± 30,−10.05 to +50.45%,−11.97 to 38.93,+4.37 to +23.11%,+1.18 to +50.80%,−7.90 to +42.01%,−2.02 to +18.91%,−2.46 to +10.88%,+10.76 to +22.06%,29.01 ± 2.50,62.41 ± 2.99
